{"source": "paper PMC8137473", "about": "“Preclinical trial of a MAP4K4 inhibitor to reduce infarct size in the pig: does cardioprotection in human stem cell-derived myocytes predict success in large mammals?” (Basic Research in Cardiology, 2021)", "tested_on": "porcine model of MI", "assay": "efficacy study, LAD occlusion 60 min / reperfusion 24 h: infarct size, no-reflow, area at risk", "type": "in vivo, swine", "procedure": "Next, an efficacy study was performed, in adherence to published guidelines for rigor and reproducibility, to evaluate the postulated benefit of DMX-10001 in a large-mammal model of MI. Briefly, 36 closed-chest swine (41 ± 2 kg) were subjected to regional ischemia by occluding the left anterior descending coronary artery (LAD) distal to the first diagonal branch for 60 min, followed by 24 h of reperfusion. Treatment with DMX-10001 (60 mg/kg/h for 0.5 h, followed by 17 mg/kg/h for 23.5 h) versus the vehicle was initiated 20 min prior to reperfusion and continued for 1 day. After 2 h of reperfusion, animals were allowed to recover from anesthesia. At 24 h of reperfusion, the infarct area (IA), area of no-reflow (NR), and area at ischemic risk (AAR) were determined. Transthoracic short-axis B-mode echocardiograms and measurements of LV pressure and its first derivative (LVdP/dt) were obtained at baseline and at 24 h of reperfusion. LV pressure–volume measurements were obtained at 24 h of reperfusion. Heart-type fatty acid binding protein (hFABP) release was measured, as a biomarker that correlates with IS and NR in swine at least as well as cardiac troponin I [30].\nThe LAD was catheterized with a standard clinical guiding catheter (JL3.5, 6F, Medtronic, Minneapolis, MN), and quantitative coronary angiography (CAAS, PIE Medical, Maastricht, The Netherlands) was performed following 2 mg isosorbidedinitrate (Cedocard, Nycomed, Hoofddorp, The Netherlands) and using iodixanol as contrast agent (Visipaque™, GE Healthcare BV, Eindhoven, The Netherlands). Then, an over-the-wire coronary angioplasty balloon (Sprinter OTW, 2–3 mm × 6 mm, Medtronic, Minneapolis, MN) on a standard guide wire (0.014″, 180 cm, ASAHI SION blue, ASAHI Intecc co Ltd, Aichi, Japan) was carefully positioned under fluoroscopic guidance distal to the first diagonal branch. Following balloon inflation, total coronary occlusion was confirmed by angiography (at baseline and at 58 min of occlusion) and by ECG changes. Animals that developed VF during the protocol were defibrillated within 25 ± 10 s. After 1 h of occlusion, the coronary balloon was deflated to establish reperfusion, which was angiographically confirmed to ensure an adequate coronary blood flow to the entire LAD perfusion territory. Heart rate, aortic blood pressure, and ECG were monitored until 2 h of reperfusion.\nTwenty min before the onset of reperfusion, an initial rapid administration was started (30 min infusion, 60 mg/kg/h, Alaris CC, Cardinal Health, Role, Switzerland), followed after 10 min of reperfusion by a lower sustained dose (23.5 h infusion, 17 mg/kg/h, Myfuser, CANOX medical Device Srl, Capurso, Italy). The dosing regimen was determined by iterative computer modeling (XenoGesis Ltd, Alderley Park, UK) (Fig. 1b), based on prior dose-finding studies in pigs (data not shown).\nAfter completing the post-infarct LV functional measurements on day two, the LAD was again catheterized, as before. The over-the-wire coronary angioplasty balloon and guide wire were positioned under fluoroscopic guidance at the same position, using anatomic landmarks (distance from sidebranches) visualized by coronary angiography. Through the lumen of the balloon, 5 ml of 4% (w/v) thioflavin-S solution (Sigma, Zwijndrecht, The Netherlands) were injected, allowing the area of no-reflow within the AAR to be measured later histologically. The balloon was re-inflated to re-occlude the LAD and a sternotomy was performed. Next, a bolus of 40 ml of a 15% (w/v) Evans Blue solution was injected into the left atrium for negative staining of the AAR. To facilitate excision, the heart was arrested via induction of VF by gently touching the LV epicardium with a 9 V battery. The LV was isolated and sectioned into 5 transverse slices. The AAR and area of no-reflow (NR), visualized using UV light, were quantified in all sections. […]", "data": [{"smiles": "COCCOc1ccc(-c2cn(-c3ccccc3)c3ncn(COP(=O)(O)O)c(=O)c23)cc1", "note": "[DMX-10001]", "values": [{"measurement": "IS/AAR", "setting": "excluding one statistical outlier, n = 11", "value": "82.1 ± 8.6", "unit": "%"}, {"measurement": "difference in IS/AAR vs the vehicle control", "setting": "excluding one statistical outlier, P = 0.0562", "value": 7, "unit": "%"}, {"measurement": "effect on NR, NR/AAR or NR/IS", "setting": "full cohort", "value": "no significant effect"}, {"measurement": "IS/AAR", "setting": "full cohort, n = 12", "value": "76.3 ± 21.6", "unit": "%"}, {"measurement": "extent of infarction (IS)", "setting": "full cohort, n = 12", "value": "18.2 ± 5.8", "unit": "g"}, {"measurement": "extent of infarction (IS) as % of LV mass", "setting": "full cohort, n = 12", "value": "17.2 ± 5.7", "unit": "%"}, {"measurement": "reduction of the extent of infarction in grams or % of LV mass vs vehicle", "setting": "full cohort, n = 12 per group", "value": 27, "unit": "%"}, {"measurement": "reduction in mean IS/AAR vs vehicle", "setting": "full cohort, not significant (P = 0.0817)", "value": 13, "unit": "%"}, {"measurement": "IS or no-reflow corrected for the area at ischemic risk", "setting": "in vivo", "value": "No significant reduction"}, {"measurement": "ANCOVA: slopes of IS and NR as a function of AAR, NR as a function of IS", "setting": "n = 11", "value": "No significant differences"}]}]}
